Consider 13 compounds from patent publication US11858941B2, “Heterocyclic and heteroaryl compounds for treating Huntington's disease” (PTC THERAPEUTICS, INC., priority 2018, dated 2024).

pIC50: −log10 of the molar value. Bounds are passed on as bounds.

The test relates to Endogenous Huntingtin Protein. The test is described as follows: Endogenous Huntingtin Protein Assay (Meso Scale Discovery ELISA-based electrochemiluminescence). The class given is cell-based. As to conditions: MSD plates coated with MW1 (expanded polyglutamine) or MAB2166 capture antibody; lysates. How it is done:
Compounds of Formula (I) were tested using the Meso Scale Discovery (MSD) Assay provided in International Application No. PCT/US2016/066042, filed on Dec. 11, 2016 and claiming priority to United States Provisional Application U.S. 62/265,652 filed on Dec. 10, 2015, the entire contents of which are incorporated herein by reference.
The Endogenous Huntingtin Protein assay used in Example 1 was developed using the ELISA-based MSD electrochemiluminescence assay platform.
Endogenous Huntingtin Protein Assay
Meso Scale Discovery (MSD) 96-well or 384-well plates were coated overnight at 4° C. with MW1 (expanded polyglutamine) or MAB2166 monoclonal antibody (for capture) at a concentration of 1 μg/mL in PBS (30 μL per well). Plates were then washed three times with 300 μL wash buffer (0.05% Tween-20 in PBS) and blocked (100 μL blocking buffer; 5% BSA in PBS) for 4-5 hours at room temperature with rotational shaking and then washed three times with wash buffer.
Samples (25 μL) were transferred to the antibody-coated MSD plate and incubated overnight at 4° C. After removal of the lysates, the plate was washed three times with wash buffer, and 25 μL of #5656S (Cell signaling; rabbit monoclonal) secondary antibody (diluted to 0.25 μg/mL in 0.05% Tween-20 in blocking buffer) was added to each well and incubated with shaking for 1 Hour at room temperature. Following incubation with the secondary antibody, the wells were rinsed with wash buffer after which 25 μL of goat anti-rabbit SULFO TAG secondary detection antibody (required aspect of the MSD system) (diluted to 0.25 μg/mL in 0.05% Tween-20 in blocking buffer) was added to each well and incubated with shaking for 1 hour at room temperature. After rinsing three times with wash buffer, 150 μL of read buffer T with surfactant (MSD) were added to each empty well, and the plate was imaged on a SI 6000 imager (MSD) according to manufacturers' instructions provided for 96- or 384-well plates.
Turning to `CC(C)(C)NC1CCC(n2nnc3cc(-c4ccc(-c5cn[nH]c5)cc4O)nnc32)C1` (stereo not shown) [Cpd 175, 2-{3-[3-(tert-butylamino)cyclopentyl]-3H-[1,2,3]triazolo[4,5-c]pyridazin-6-yl}-5-(1H-pyrazol-4-yl)phenol], the negative logarithm of the IC50 (pIC50) was 6.00 to 6.30. Compound `CC1(C)CC(n2nnc3cc(-c4c(O)cc(-c5cn[nH]c5)cc4F)nnc32)CC(C)(C)N1` [Cpd 59, 3-fluoro-5-(1H-pyrazol-4-yl)-2-[3-(2,2,6,6-tetramethylpiperidin-4-yl)-3H-[1,2,3]triazolo[4,5-c]pyridazin-6-yl]phenol] had a pIC50 of at least 7.00. Compound `CC1(C)C[C@H](n2nnc3cc(-c4ccc(-c5cn[nH]c5)cc4O)nnc32)[C@H](F)C(C)(C)N1` [Cpd 164, 2-{3-[(3S,4S)-3-fluoro-2,2,6,6-tetramethylpiperidin-4-yl]-3H-[1,2,3]triazolo[4,5-c]pyridazin-6-yl}-5-(1H-pyrazol-4-yl)phenol] had a pIC50 of at least 7.00.

The compound `COc1cc(-c2ccc(-c3cc4nnn(C5CC(C)(C)NC(C)(C)C5)c4nn3)c(O)c2)ccn1` [Cpd 77, 5-(2-methoxypyridin-4-yl)-2-[3-(2,2,6,6-tetramethylpiperidin-4-yl)-3H-[1,2,3]triazolo[4,5-c]pyridazin-6-yl]phenol] had a pIC50 of at least 7.00. The value for `Cc1ncc(-c2ccc(-c3cc4nnn(C5CC(C)(C)NC(C)(C)C5)c4nn3)c(O)c2)s1` [Cpd 150, 5-(2-methyl-1,3-thiazol-5-yl)-2-[3-(2,2,6,6-tetramethylpiperidin-4-yl)-3H-[1,2,3]triazolo[4,5-c]pyridazin-6-yl]phenol] was at least 7.00; that for `CC1(C)CC(n2nnc3cc(-c4ccc(-c5ccn6nncc6c5)cc4O)nnc32)CC(C)(C)N1` [Cpd 125, 2-[3-(2,2,6,6-tetramethylpiperidin-4-yl)-3H-[1,2,3]triazolo[4,5-c]pyridazin-6-yl]-5-([1,2,3]triazolo[1,5-a]pyridin-5-yl)phenol] was 6.30 to 7.00. The value for `CC1(C)CC(n2nnc3cc(-c4ccc(-c5cc[nH]c(=O)c5)cc4O)nnc32)CC(C)(C)N1` [Cpd 93, 4-{3-hydroxy-4-[3-(2,2,6,6-tetramethylpiperidin-4-yl)-3H-[1,2,3]triazolo[4,5-c]pyridazin-6-yl]phenyl}pyridin-2(1H)-one] was at least 7.00; that for `CC(C)(C)NC1CC(n2nnc3cc(-c4ccc(-c5cn[nH]c5)cc4O)nnc32)C1` (stereo not shown) [Cpd 170, 2-{3-[3-(tert-butylamino)cyclobutyl]-3H-[1,2,3]triazolo[4,5-c]pyridazin-6-yl}-5-(1H-pyrazol-4-yl)phenol] was 5.52 to 6.00; that for `CCn1cc(-c2ccc(-c3cc4nnn(C5CC(C)(C)NC(C)(C)C5)c4nn3)c(O)c2)cn1` [Cpd 46, 5-(1-ethyl-1H-pyrazol-4-yl)-2-[3-(2,2,6,6-tetramethylpiperidin-4-yl)-3H-[1,2,3]triazolo[4,5-c]pyridazin-6-yl]phenol] was 6.00 to 6.30. In turn, `Cc1ncc(-c2ccc(-c3cc4nnn(C5CC(C)(C)NC(C)(C)C5)c4nn3)c(O)c2)o1` [Cpd 158, 5-(2-methyl-1,3-oxazol-5-yl)-2-[3-(2,2,6,6-tetramethylpiperidin-4-yl)-3H-[1,2,3]triazolo[4,5-c]pyridazin-6-yl]phenol] had a negative logarithm of the IC50 (pIC50) of at least 7.00. The value for `Cn1ccc(-c2ccc(-c3cc4nnn(C5CC(C)(C)NC(C)(C)C5)c4nn3)c(O)c2)cc1=O` [Cpd 37, 4-{3-hydroxy-4-[3-(2,2,6,6-tetramethylpiperidin-4-yl)-3H-[1,2,3]triazolo[4,5-c]pyridazin-6-yl]phenyl}-1-methylpyridin-2(1H)-one] was at least 7.00. The value for `CC1(C)CC(n2ncc3cc(-c4ccc(-c5cncnc5)cc4O)nnc32)CC(C)(C)N1` [Cpd 167, 5-(pyrimidin-5-yl)-2-[1-(2,2,6,6-tetramethylpiperidin-4-yl)-1H-pyrazolo[3,4-c]pyridazin-5-yl]phenol] was 5.52 to 6.00; that for `CC1(C)CC(c2csc3cc(-c4ccc(-c5cn[nH]c5)cc4O)nnc23)CC(C)(C)N1` [Cpd 24, 5-(1H-pyrazol-4-yl)-2-[7-(2,2,6,6-tetramethylpiperidin-4-yl)thieno[3,2-c]pyridazin-3-yl]phenol] was at least 7.00.

One may read the pIC50 as −log10 of the IC50, conventionally taken in molar units. Low values mean a high IC50, high ones a low IC50.
